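Each compound was tested at five concentrations against cells in 96-well plates for 48 hours. The concentration for 50% growth inhibition is given as GI50. TGI denotes the concentration required for complete inhibition of growth.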

Test systems include HCT-15 colon; MCF7 breast; SK-MEL-28 melanoma; M14 melanoma; SF-295 CNS; T-47D breast; NCI-H460 lung; A498 renal; A549 NSCLC; DU-145 prostate.
Common to all, as to assay: growth of human tumour cells (NCI), 48 h

`O=C1CC(N2C(=O)/C(=C/C(Cl)=C\c3ccc([N+](=O)[O-])cc3)SC2=S)C(=O)N1c1ccc(Cl)cc1` (stereo unspecified): the GI50 in the test on HCT-15 colon was 0.599 µM; with MCF7 breast, 1.38 µM; in the test on SK-MEL-28 melanoma, 1.71 µM; in the test with M14 melanoma it was 2.11 µM; in the test with SF-295 CNS, 1.4 µM; in the test with T-47D breast, 2.03 µM. For the same compound, in the test with NCI-H460 lung, the GI50 was 3.3 µM. In addition, the TGI in the test with HCT-15 colon was 8.2 µM; with MCF7 breast it was over 100 µM; with SK-MEL-28 melanoma it was 4.02 µM; in the test on M14 melanoma, 5.06 µM; with SF-295 CNS, 3.24 µM; with T-47D breast, 6.34 µM. In the test on NCI-H460 lung, this compound had a TGI of over 100 µM.
In the case of `CCn1cc(C(=O)O)c(=O)c2cc(F)c(N3CCN(Cn4c(O)c(N=NC(=O)c5ccncc5)c5cc(Cl)ccc54)CC3)cc21`, the TGI in the test on A498 renal, with HCT-15 colon, with A549 NSCLC, in the test on MCF7 breast, with SK-MEL-28 melanoma and in the test on M14 melanoma was over 100 µM in each case. In addition, the TGI in the test with SF-295 CNS, in the test with DU-145 prostate, in the test with T-47D breast and in the test on NCI-H460 lung was over 100 µM throughout.
With `C=CCOCCCC(=O)C(=[N+]=[N-])C(=O)OC`, the TGI in the test on A498 renal, in the test with HCT-15 colon, in the test with A549 NSCLC, with SK-MEL-28 melanoma, in the test on M14 melanoma and in the test on SF-295 CNS was over 100 µM each time. The TGI in the test with DU-145 prostate and with NCI-H460 lung was over 100 µM throughout.
For the compound `OC(c1ccc(-c2ccccc2)cc1)(c1ccc(-c2ccccc2)cc1)c1ccc(-c2ccccc2)cc1`, the TGI in the test with HCT-15 colon, in the test with A549 NSCLC, in the test with MCF7 breast, with SK-MEL-28 melanoma, with M14 melanoma and with SF-295 CNS was over 100 µM throughout. For the same compound, the TGI in the test on DU-145 prostate, with T-47D breast and with NCI-H460 lung was over 100 µM in each case.
As for `CCCCC1Cc2cc(OC)ccc2-c2nc3cc(OC)ccc3n21` (stereo unspecified) (tested in a mixture with another compound), the TGI in the test with HCT-15 colon worked out at 11.3 µM; in the test on A549 NSCLC it was 27.9 µM; with MCF7 breast, 33.5 µM; with M14 melanoma, 28.2 µM; in the test with DU-145 prostate, 30 µM; in the test on T-47D breast, 53.8 µM. The same compound showed a TGI with NCI-H460 lung of 28.7 µM.
As for `N=C(N)C(N=Nc1ccccc1)C(=N)N` (stereo unspecified), the TGI with A498 renal, in the test with HCT-15 colon, with A549 NSCLC, with MCF7 breast, in the test on SK-MEL-28 melanoma and in the test on M14 melanoma was over 100 µM throughout. For the same compound, the TGI in the test with SF-295 CNS, in the test with DU-145 prostate, with T-47D breast and in the test on NCI-H460 lung was over 100 µM in each case.
For the compound `O=C(O)C(Cc1ccccc1)N1C(=O)c2ccccc2C1=O` (stereo unspecified), the TGI was over 100 µM in the test with A498 renal; over 100 µM in the test on HCT-15 colon; over 100 µM in the test with A549 NSCLC; over 100 µM in the test on MCF7 breast; 30.4 µM in the test with SK-MEL-28 melanoma; over 100 µM in the test on M14 melanoma. Moreover, the TGI in the test with SF-295 CNS, with DU-145 prostate, in the test on T-47D breast and in the test on NCI-H460 lung was over 100 µM each time.
In the case of `Cc1cc(C)n(C(=O)C(C)Sc2nnc(SC(C)C(=O)n3nc(C)cc3C)s2)n1` (stereo unspecified), the TGI with A498 renal, with HCT-15 colon, with A549 NSCLC, in the test on MCF7 breast, in the test with SK-MEL-28 melanoma and in the test with M14 melanoma was over 100 µM each time. Moreover, the TGI in the test on SF-295 CNS, in the test with DU-145 prostate and with NCI-H460 lung was over 100 µM throughout.
Take `O=C1CS(=O)(=O)C(c2cccc(Oc3ccccc3)c2)N1c1cccc(Cl)c1Cl` (stereo unspecified): the TGI in the test with A549 NSCLC was over 100 µM; in the test with MCF7 breast, 21.2 µM; in the test with SK-MEL-28 melanoma, over 100 µM; in the test on M14 melanoma, over 100 µM; in the test on SF-295 CNS it was over 100 µM; in the test on DU-145 prostate, over 100 µM. Besides, the TGI in the test on T-47D breast and with NCI-H460 lung was over 100 µM in each case.
`O=C1CCC(NC(=O)Cc2ccc(O)cc2)C(=O)N1` (stereo unspecified): the TGI with A498 renal, with HCT-15 colon, in the test on A549 NSCLC, with SK-MEL-28 melanoma, in the test with M14 melanoma and in the test with SF-295 CNS was over 2500 µM each time. The compound further came in with a TGI in the test with NCI-H460 lung of over 2500 µM.
`C=C1C(C2(C)C=CC(=O)OC3(C)COC(=O)CC32)C(OC=O)C(OC(=O)C(O)C(C)CC)C2(C)C(c3ccoc3)CC(OC(C)=O)C12O` (stereo unspecified): the TGI in the test on A498 renal, in the test with HCT-15 colon, in the test on A549 NSCLC, in the test on MCF7 breast, in the test with SK-MEL-28 melanoma and with M14 melanoma was over 100 µM each time. Further, the TGI in the test with SF-295 CNS, in the test on DU-145 prostate, in the test with T-47D breast and with NCI-H460 lung was over 100 µM in each case.
With `O=C1c2scnc2-c2nccc3c2c1nc1ccccc13`, the TGI in the test on A498 renal is 2.52 µM; in the test with HCT-15 colon, 1.28 µM; in the test with A549 NSCLC, 4.87 µM; with MCF7 breast, 1.03 µM; with SK-MEL-28 melanoma, 2.56 µM; with SF-295 CNS, 3.6 µM. For the same compound, the values for the TGI in the test on DU-145 prostate, in the test on T-47D breast and with NCI-H460 lung were 3.14 µM, 1.7 µM and 1.58 µM, respectively.
As for `CO[C@@]12C[C@@H](CNC(=O)c3cc(Br)c[nH]3)O[C@@H]1NC(=O)N2`, the TGI in the test on A498 renal, in the test with HCT-15 colon, with A549 NSCLC, with MCF7 breast, in the test with SK-MEL-28 melanoma and in the test with M14 melanoma was over 100 µM each time. Moreover, the TGI in the test with SF-295 CNS, in the test with DU-145 prostate, with T-47D breast and in the test with NCI-H460 lung was over 100 µM each time.
Regarding `COC1CCC(OS(C)(=O)=O)CO1` (stereo unspecified), the TGI in the test on A498 renal, with SK-MEL-28 melanoma, in the test on M14 melanoma, in the test with SF-295 CNS and in the test on NCI-H460 lung was over 100 µM in each case.

(Values after PubChem BioAssay (NCI).)
